Reference: patent US4550186A, “Binuclear copper (II) carboxylates formed from amine-carboxyboranes” (Duke University, priority 1983, dated 1985)
Like-named read-outs stand apart in the source and are kept apart here.

Biological target: T1, messenger ribonucleic acid polymerase (Mus musculus, UniProt P08775+Q8CFI7)
T1 construct: enzymes isolated from nuclei; endogenous in cells; host or cells: Ehrlich ascites tumor cell nuclei, ammonium sulfate fraction
Experiment: In vivo messenger ribonucleic acid polymerase activity
Experimental: CF1 male mice (~30 g) were implanted with 2×10^6 Ehrlich ascites tumor cells, intraperitoneally on Day 0. Compound I was suspended by homogenation in 0.05% polysorbate.80-water and administered intraperitoneally at 10 and 20 mg/kg for 9 days to determine its effectiveness for inhibition of tumor growth. Mice were sacrificed on Day 10, and the ascites fluid was collected from the peritoneal cavity. The volume and ascrit (packed cell volume) were determined for each animal and the percent inhibition of tumor growth was calculated. For the metabolic studies, mice were treated on Days 8 and 9 with 10 mg/kg of Compound I, intraperitoneally. The animal was sacrificed on Day 10 and the ascites fluid harvested. The in vitro metabolic studies were performed at […] final concentration of Compound I.
In vitro and in vivo nuclear deoxyribonucleic acid polymerase activity was determined on isolated Ehrlich ascites cell nuclei. The incubation was that described by Sawada et al [Can. Res., 34, 3341 (1974)] except that [methyl-^3 H] deoxythymidine triphosphate (82.4 Ci/mmol) was used. The acid insoluble nucleic acid was collected on GF/F filters and counted. Nuclear ribonucleic acid polymerase activities were determined on enzymes isolated from nuclei. […] The acid insoluble ribonucleic acid was collected on nitrocellulose filters and counted.

## {Cu[(CH3)3 N.BH2 CO2 ]2.(CH3)3 N.BH2 COOH} [Compound I]
  Messenger ribonucleic acid polymerase activity: not affected
10 mg/kg/day I.P. on Days 8 and 9
  Messenger ribonucleic acid polymerase activity: 96 ± 9 % Control
